# Values of other authors as cited in publication PMC7318425 (Bioorganic & medicinal chemistry letters, 2019).
# System: off-target kinases
# Conditions: KinomeScan, compared with ibrutinib
compound,measurement,value
Nc1ncnc2c1c(-c1ccc(Oc3ccccc3)cc1)nn2C1CCN(CCOCCOCC(=O)Nc2ccc3c(c2)C(=O)N(C2CCC(=O)NC2=O)C3=O)CC1 (stereo not shown) [MT802],off-target kinase binding,binds fewer off-target kinases than ibrutinib
